# Test results published in patent US20170247326A1, “Substituted Pyrrolidine Carboxamide Compounds” (EPIZYME, INC., priority 2014, published 2017).
# Molecular target: T1, SMYD2 (Homo sapiens, UniProt Q9NRG4)
# T1 construct: Full length SMYD2 (NP_064582.2) was cloned; His6 (N, cleaved yes); FLAG (N); made in house; host or cells: Sf9 insect cells
# Test: SMYD2 biochemical assay (3H-SAM, biotinylated peptide substrate, Flashplate)
# Details: Table 1; average of n = 1 to n = 50; read-out: SMYD2 Biochem IC50
# In short: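 Full-length His/FLAG-tagged SMYD2 (tag removed, Sf9-expressed) at 1.5 nM was preincubated with compound for 30 min at room temperature in Bicine pH 7.6 buffer with 2% DMSO. Reaction used 10 nM 3H-SAM and 60 nM biotinylated peptide, stopped with 600 uM cold SAM. Streptavidin-captured 3H-peptide counted; IC50 from 3- or 4-parameter fit.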
# T1 sequence (Q9NRG4 whole entry): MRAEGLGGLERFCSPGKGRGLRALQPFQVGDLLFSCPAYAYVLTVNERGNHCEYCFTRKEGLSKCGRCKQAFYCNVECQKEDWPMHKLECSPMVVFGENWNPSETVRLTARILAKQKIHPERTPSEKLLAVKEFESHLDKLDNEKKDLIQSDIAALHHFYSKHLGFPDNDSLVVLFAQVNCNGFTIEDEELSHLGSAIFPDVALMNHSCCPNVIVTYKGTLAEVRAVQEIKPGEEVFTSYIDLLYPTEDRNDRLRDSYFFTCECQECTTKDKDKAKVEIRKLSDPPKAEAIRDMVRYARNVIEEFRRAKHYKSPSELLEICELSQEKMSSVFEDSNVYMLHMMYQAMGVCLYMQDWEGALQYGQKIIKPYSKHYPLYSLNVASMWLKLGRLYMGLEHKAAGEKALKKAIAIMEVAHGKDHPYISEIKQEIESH
row,IC50 [µM],Structure (SMILES)
1,13.2,"C[C@H]1CN(C2CC2)C[C@@H]1NC(=O)c1cn(C2CC2)nn1 (racemic) [compound 18, (±)-trans-1-cyclopropyl-N-(1-cyclopropyl-4-methylpyrrolidin-3-yl)-1H-1,2,3-triazole-4-carboxamide]"
2,> 50,"C[C@H]1CN(C2CC2)C[C@@H]1NC(=O)c1ccc2[nH]c(=O)[nH]c2c1 (racemic) [compound 22, (±)-trans-N-(1-cyclopropyl-4-methylpyrrolidin-3-yl)-2-oxo-2,3-dihydro-1H-benzo[d]imidazole-5-carboxamide]"

# Same assay, conditions: Table 3; average of n = 1 to n = 50; read-out: SMYD2 Biochem IC50
row,IC50 [µM],Structure (SMILES)
1,> 50,"CC(C)N1C[C@H](C)[C@H](NC(=O)c2ccc3c(c2)NC(=O)CO3)C1 (single isomer, unassigned) [compound 32, (+)-cis-N-[4-methyl-1-(propan-2-yl)pyrrolidin-3-yl]-3-oxo-3,4-dihydro-2H-1,4-benzoxazine-6-carboxamide]"
2,> 50,"CC(C)N1C[C@@H](C)[C@H](NC(=O)c2cc(C3CC3)[nH]n2)C1 (racemic) [compound 62, (±)-trans-5-cyclopropyl-N-[4-methyl-1-(propan-2-yl)pyrrolidin-3-yl]-1H-pyrazole-3-carboxamide]"
3,> 50,"CC(C)N1C[C@H](C)[C@H](NC(=O)c2ccc3c(c2)OCC(=O)N3)C1 (racemic) [compound 29, (±)-cis-N-[4-methyl-1-(propan-2-yl)pyrrolidin-3-yl]-3-oxo-3,4-dihydro-2H-1,4-benzoxazine-7-carboxamide]"
4,> 50,"CC(C)N1C[C@H](C)[C@H](NC(=O)c2ccc(N3CCCC3)cc2)C1 (racemic) [compound 30, (±)-cis-N-[4-methyl-1-(propan-2-yl)pyrrolidin-3-yl]-4-(pyrrolidin-1-yl)benzamide]"
5,> 50,"CC(C)N1C[C@@H](C)[C@H](NC(=O)c2ccc(C3CC3)nn2)C1 (racemic) [compound 108, (±)-trans-6-cyclopropyl-N-[4-methyl-1-(propan-2-yl)pyrrolidin-3-yl]pyridazine-3-carboxamide]"

# More lines, now with the values behind:
row,Structure (SMILES),IC50 [µM]
1,"CC(C)N1C[C@@H](C)[C@H](NC(=O)c2nnc(C3CC3)s2)C1 (racemic) [compound 48, (±)-trans-5-cyclopropyl-N-[4-methyl-1-(propan-2-yl)pyrrolidin-3-yl]-1,3,4-thiadiazole-2-carboxamide]",39.5
2,"C[C@@H]1CN(C2CC2)C[C@H]1NC(=O)c1cccc(N2CCCC2)c1 (racemic) [compound 34, (±)-trans-N-[1-cyclopropyl-4-methylpyrrolidin-3-yl]-3-(pyrrolidin-1-yl)benzamide]",> 50

# System: esophageal, liver and breast cancer cell lines
# Test: not given
# Details: dose-dependent; Nguyen et al. J Biol Chem. 2015; cited from earlier work
row,Structure (SMILES),"proliferation of several esophageal, liver and breast cancer cell lines"
1,Cc1cn(CCN2CCN(c3ccccc3-c3cc(C#N)cc(C(=O)NCCCN4CCCC4)c3)CC2)c2ccccc12 [LLY-507],inhibited the proliferation
